{
  "source": "ChEMBL document CHEMBL5131544",
  "about": "“Two-Photon Photodynamic Therapy Targeting Cancers with Low Carboxylesterase 2 Activity Guided by Ratiometric Fluorescence” (J Med Chem, 2022)",
  "key": {"[1]": {"tested_on": "PANC-1", "experiment": "Induction of apoptosis in human PANC-1 cells assessed as caspase 3 cleavage at 20 uM preincubated for 3 hrs followed by compound washout and 415 nm light irradiation for 10 mins and measured after 20 to 1440 mins post irradiation by Western blot analysis", "format": "functional, cell-based"}, "[2]": {"tested_on": "PANC-1", "experiment": "Induction of apoptosis in human PANC-1 cells at 20 uM preincubated for 3 hrs followed by compound washout and 415 nm light irradiation for 10 mins and measured after 1 hr post irradiation by Annexin V-FITC staining based assay", "format": "functional, cell-based"}, "[3]": {"tested_on": "MCF7", "experiment": "Phototoxicity against human MCF7 cells assessed as reduction in cell viability after 3 hrs followed by compound washout and 415 nm light irradiation measured after overnight incubation by MTT assay", "format": "functional"}, "[4]": {"tested_on": "A549", "experiment": "Phototoxicity against human A549 cells assessed as reduction in cell viability after 3 hrs followed by compound washout and 415 nm light irradiation measured after overnight incubation by MTT assay", "format": "functional"}, "[5]": {"tested_on": "PANC-1", "experiment": "Induction of apoptosis in human PANC-1 cells assessed as necrosis at 20 uM preincubated for 3 hrs followed by compound washout and 415 nm light irradiation for 10 mins and measured after 24 hrs post irradiation by Hoeschst-33342/PI staining based assay", "format": "functional, cell-based"}, "[6]": {"experiment": "Dark toxicity against human HepG2 cells assessed as reduction in cell viability after 3 hrs by MTT assay", "format": "cell-based"}, "[7]": {"experiment": "Dark toxicity against human A549 cells assessed as reduction in cell viability after 3 hrs by MTT assay", "format": "cell-based"}, "[8]": {"experiment": "Dark toxicity against human PANC-1 cells assessed as reduction in cell viability after 3 hrs by MTT assay", "format": "cell-based"}, "[9]": {"tested_on": "PANC-1", "experiment": "Induction of cell morphological changes in human PANC-1 cells at 20 uM preincubated for 2 hrs followed by compound washout and 900 nm light irradiation measured after 1 hr post irradiation by two-photon based bright field imaging analysis", "format": "functional"}, "[10]": {"tested_on": "PANC-1", "experiment": "Induction of ROS production in human PANC-1 cells at 20 uM incubated for 3 hrs under 415 nm light irradiation by DCFH-DA staining based fluorescence microscopic analysis", "format": "functional, cell-based"}, "[11]": {"tested_on": "PANC-1", "experiment": "Induction of apoptosis in human PANC-1 cells at 20 uM preincubated for 3 hrs followed by compound washout and 415 nm light irradiation for 10 mins and measured after 4 to 24 hrs post irradiation by Annexin V-FITC staining based assay", "format": "functional, cell-based"}, "[12]": {"tested_on": "PANC-1", "experiment": "Induction of apoptosis in human PANC-1 cells assessed as membrane decomposition at 20 uM preincubated for 3 hrs followed by compound washout and 415 nm light irradiation for 10 mins and measured after 24 hrs post irradiation by Hoeschst-33342/PI staining based assay", "format": "functional, cell-based"}, "[13]": {"tested_on": "PANC-1", "experiment": "Phototoxicity against human PANC-1 cells assessed as reduction in cell viability after 3 hrs followed by compound washout and 415 nm light irradiation measured after overnight incubation by MTT assay", "format": "functional"}, "[14]": {"tested_on": "PANC-1", "experiment": "Induction of cell death in human PANC-1 cells assessed as reduction in cell viability preincubated for 2 hrs followed by compound washout and immediate 900 nm light irradiation and measured 1 hr post light irradiation by two-photon based ReadyProbes blue/green imaging analysis", "format": "functional"}, "[15]": {"tested_on": "PANC-1", "experiment": "Induction of apoptosis in human PANC-1 cells assessed as shrinkage of cells at 20 uM preincubated for 3 hrs followed by compound washout and 415 nm light irradiation for 10 mins and measured after 24 hrs post irradiation by Hoeschst-33342/PI staining based assay", "format": "functional, cell-based"}, "[16]": {"tested_on": "MCF7", "experiment": "Induction of ROS production in human MCF7 cells at 20 uM incubated for 3 hrs under 415 nm light irradiation by DCFH-DA staining based fluorescence microscopic analysis", "format": "functional, cell-based"}, "[17]": {"experiment": "Drug uptake in human PANC-1 cells at 0.5 to 20 uM after 3 hrs under 900 nm light irradiation by two-photon based fluorescence imaging assay", "format": "ADME, cell-based", "conditions": "panc-1, 3 h, dose 0.5-20 µM"}, "[18]": {"experiment": "Induction of singlet oxygen production assessed as singlet oxygen quantum yield at 20 uM upon 415 nm light irradiation by ABDA assay", "format": "functional"}, "[19]": {"experiment": "Dark toxicity against human MCF7 cells assessed as reduction in cell viability after 3 hrs by MTT assay", "format": "cell-based"}, "[20]": {"tested_on": "PANC-1", "experiment": "Induction of ROS production in human PANC-1 cells at 20 uM preincubated for 3 hrs followed by compound washout and 900 nm light irradiation by DCFH-DA staining based two-photon fluorescence microscopy analysis", "format": "functional, cell-based"}, "[21]": {"tested_on": "PANC-1", "experiment": "Induction of cell death in human PANC-1 cells assessed as […] cleavage at 20 uM after 6 hrs under 900 nm light irradiation by two-photon based Western blotting analysis", "format": "functional"}, "[22]": {"tested_on": "HepG2", "experiment": "Phototoxicity against human HepG2 cells assessed as reduction in cell viability after 3 hrs followed by compound washout and 415 nm light irradiation measured after overnight incubation by MTT assay", "format": "functional", "conditions": "HepG2, light or radiation study"}, "[23]": {"tested_on": "PANC-1", "experiment": "Antitumor activity against human PANC-1 tumor spheroids at 20 uM preincubated for 3 hrs followed by compound washout and 900 nm light irradiation by two-photon baseReadyProbes blue/green imaging analysis", "format": "functional, cell-based"}, "[24]": {"experiment": "Induction of ROS production in DBPS at pH 7.4 assessed as DCF production at 20 uM upon 415 nm light irradiation by fluorescence spectra analysis", "format": "functional"}, "[25]": {"tested_on": "PANC-1", "experiment": "Induction of cell death in human PANC-1 cells assessed as reduction in cell viability preincubated for 3 hrs followed by compound washout and immediate 900 nm light irradiation and measured 1 hr post light irradiation by two-photon based MTT assay", "format": "functional"}, "[26]": {"tested_on": "PANC-1", "experiment": "Induction of apoptosis in human PANC-1 cells at 20 uM preincubated for 3 hrs followed by compound washout and 415 nm light irradiation for 10 mins and measured after 20 mins post irradiation by Annexin V-FITC staining based assay", "format": "functional, cell-based"}, "[27]": {"conditions": "PANC-1, light or radiation study"}},
  "note": "Activity calls are given as the source filed them. No cut-off for these calls is given here.",
  "data": [
    {"smiles": "O=C(Nc1ccc2c3c(cccc13)C(=O)C=C2)c1ccccc1", "values": [
      {"measurement": "Activity", "setting": "[1]", "value": "Active"},
      {"measurement": "Activity", "setting": "[2]", "value": "Active"},
      {"measurement": "Activity", "setting": "[3]; DDE = dose-dependent effect", "value": "Dde"},
      {"measurement": "CC50", "setting": "[3]; MCF7, light or radiation study", "value": 1600, "unit": "nM"},
      {"measurement": "CC50", "setting": "[4]; A549, light or radiation study", "value": 4400, "unit": "nM"},
      {"measurement": "Activity", "setting": "[4]; DDE = dose-dependent effect", "value": "Dde"},
      {"measurement": "Activity", "setting": "[5]", "value": "Active"},
      {"measurement": "CC50 at 3 h", "setting": "[6]", "value": "> 32000", "unit": "nM"},
      {"measurement": "CC50 at 3 h", "setting": "[7]", "value": "> 32000", "unit": "nM"},
      {"measurement": "CC50 at 3 h", "setting": "[8]", "value": "> 32000", "unit": "nM"},
      {"measurement": "Activity", "setting": "[9]", "value": "Active"},
      {"measurement": "Activity", "setting": "[10]", "value": "Active"},
      {"measurement": "Activity", "setting": "[11]", "value": "Active"},
      {"measurement": "Activity", "setting": "[12]", "value": "Active"},
      {"measurement": "Activity", "setting": "[13]; DDE = dose-dependent effect", "value": "Dde"},
      {"measurement": "CC50", "setting": "[13]; [27]", "value": 1400, "unit": "nM"},
      {"measurement": "Activity", "setting": "[14]; DDE = dose-dependent effect", "value": "Dde"},
      {"measurement": "CC50", "setting": "[14]; [27]", "value": 647, "unit": "nM"},
      {"measurement": "Activity", "setting": "[15]", "value": "Active"},
      {"measurement": "Activity", "setting": "[16]", "value": "Active"},
      {"measurement": "Drug uptake", "setting": "[17]", "value": "Active"},
      {"measurement": "Activity", "setting": "[18]", "value": 0.18},
      {"measurement": "CC50 at 3 h", "setting": "[19]", "value": "> 32000", "unit": "nM"},
      {"measurement": "Activity", "setting": "[20]", "value": "Active"},
      {"measurement": "Activity", "setting": "[21]", "value": "Active"},
      {"measurement": "CC50", "setting": "[22]", "value": "> 32000", "unit": "nM"},
      {"measurement": "Activity", "setting": "[23]", "value": "Active"},
      {"measurement": "Activity", "setting": "[24]", "value": "Active"},
      {"measurement": "Activity", "setting": "[25]; DDE = dose-dependent effect", "value": "Dde"},
      {"measurement": "CC50", "setting": "[25]; [27]", "value": 647, "unit": "nM"},
      {"measurement": "Activity", "setting": "[26]", "value": "Active"}
    ]}
  ]
}
